System: Human umbilical vein endothelial cells (HUVECs)
Test: Gene expression array and pathway/upstream regulator analysis in HUVECs (Example 2)
Type: cell-based
Details: for differentially expressed genes: HUVEC
Procedure: For each cell line, n=8×25 cm^2 culture flasks were set up. Two flasks were harvested for each cell type on the day of treatment (24 hours after seeding). This represents the Day0 time point. From the remaining flasks, three flasks were treated with Control Medium and three were treated with Culture Medium (CM) containing LMW-DS to give a final concentration of 0.01 mg/ml. Cells from the treated flasks were collected after 48 hours. Therefore the collected data represent (a) untreated cells (Day0 Controls and Day2 Controls) and (b) cells treated with LMW-DS for 48 hours (Day2 LMW-DS treated).
25 cm^2 flasks were coated by adding 2 ml per flask of a solution of 50 μg/ml poly-d-lysine in Hank's balanced salt solution (HBSS) and incubating overnight at 37° C. in the dark. Flasks were washed with cell culture water and air-dried for 30 min in the dark. Flasks were coated by adding 1 ml per flask of a solution of 25 μg/ml laminin in phosphate-buffered saline (PBS) and incubating for 2 hour at 37° C. in the dark. The laminin flasks were washed with PBS three times before plating cells.
Medium 200+Large Vessel Endothelial Supplement (M200+LVES) additive (1:50) was prepared and pre-warmed to 37° C. Cells were thawed in a 37° C. water bath for no longer than 2 min and gently transferred into a 50 ml tube containing 20 ml Dulbecco's Modified Eagle Medium, Nutrient Mixture F-12 (DMEM-F12). The cell suspension was mixed by inverting the tube carefully twice. Cells were spun at 400×g for 10 minutes. Supernatant removed and cells were re-suspended in 10 ml of culture media (M200+LVES additive).
Cells were counted with the Cellometer. 1,000,000 cells/flask were seeded in 25 cm^2 flasks (n=8) and medium was topped up to a total of 5 ml per flask. Cells were incubated at 37° C. with 5% CO2. Cells were allowed to settle for 24 hours before LMW-DS treatment.
A fresh 100× LMW-DS stock (1.0 mg/ml) was prepared in sterile DMEM-F12. The concentrated drug stock was sterile filtered and added to the respective culture media (19.6 ml CM and 0.4 ml LMW-DS stock solution). The Control was made using 19.6 ml CM and 0.4 ml of DMEM-F12. LMW-DS and CM were added to the respective flasks (5 ml each) to reach the 0.01 mg/ml concentration of LMW-DS in each dish with a total of 10 ml CM each.
CM was aspirated into a clean and labelled 15 ml Falcon tube. The flasks (without culture medium) were placed into the −80° C. freezer for 30 minutes. The CM in the Falcon tubes was spun at 3000×g for 5 minutes. Supernatant was removed and the small pellet was re-suspended in 2.5 ml Trizol:Water (4:1) solution at room temperature (RT, ˜22° C.).
The frozen flasks were removed one-by one from the freezer and the Trizol-Water from the appropriate tubes was moved to the flask. Flasks were left at RT for 5 minutes before the content was aspirated back into the 15 ml Falcon tube (after washing the bottom of the flask with the solution thoroughly). The flasks were inspected under the microscope to ensure full removal of cells. The collected lysates in the 15 ml Falcon tubes were placed into the −80° C. freezer.
Falcon tubes containing the homogenates were removed from the freezer and stored for 5 minutes at RT to permit the complete dissociation of nucleoprotein complexes.
Two aliquots of 1 ml lysate were removed from each sample and 200 μl of chloroform was added to each (0.2 ml of chloroform per 1 ml of TRIzol Reagent used during the cell lysis step) and the tube was shaken vigorously. Samples were stored at RT for 2-3 minutes and subsequently centrifuged at 12,000×g for 15 minutes at 4° C.
The mixture separated into three layers: a lower red phenol-chloroform phase, an interphase and a colorless upper aqueous phase. The RNA remained in the top aqueous phase, DNA in the white middle (interphase) phase and protein in the pink bottom (organic) phase. The top ¾ of the aqueous phase was transferred to a new clean Eppendorf tube. […]

sodium salt of dextran sulfate [LMW-DS]
differentially expressed genes (D0 control vs D2 LMW-DS treated, 0.01 mg/ml): 1779 genes | differentially expressed genes (D2 control vs D2 LMW-DS treated, 0.01 mg/ml): 76 genes | cell adhesion (HUVECs): not affected | number of genes: no effect / abolished nutrient effect (HUVECs, 0.01 mg/ml, 48 hours): 67 | number of genes: no effect / total (HUVECs, 0.01 mg/ml, 48 hours): 67 | number of genes: significant downregulation / abolished nutrient effect (HUVECs, 0.01 mg/ml, 48 hours): 4 | number of genes: significant downregulation / enhanced response to nutrients (HUVECs, 0.01 mg/ml, 48 hours): 120 | number of genes: significant downregulation / not different from control (HUVECs, 0.01 mg/ml, 48 hours): 167 | number of genes: significant downregulation / total (HUVECs, 0.01 mg/ml, 48 hours): 291 | number of genes: significant upregulation / abolished nutrient effect (HUVECs, 0.01 mg/ml, 48 hours): 11 | number of genes: significant upregulation / enhanced response to nutrients (HUVECs, 0.01 mg/ml, 48 hours): 229 | number of genes: significant upregulation / not different from control (HUVECs, 0.01 mg/ml, 48 hours): 1326 | number of genes: significant upregulation / total (HUVECs, 0.01 mg/ml, 48 hours): 1566 | number of genes: total / abolished nutrient effect (HUVECs, 0.01 mg/ml, 48 hours): 82 | number of genes: total / enhanced response to nutrients (HUVECs, 0.01 mg/ml, 48 hours): 349 | number of genes: total / not different from control (HUVECs, 0.01 mg/ml, 48 hours): 1493 | number of genes: total / total (HUVECs, 0.01 mg/ml, 48 hours): 1924

From US20220128542A1, “TREATMENT EFFICIENCY EVALUATION” (TX MEDIC AB, priority 2019, published 2022)
